In US12649733B2, “3,6-diamino-pyridazin-3-yl derivatives, pharmaceutical compositions containing them and their uses as pro-apoptotic agents” (LES LABORATOIRES SERVIER, priority 2019, dated 2026):

How the values were obtained:
MOLT-4 cells = experiment: MOLT-4 cell viability, MTT assay; format: cell-based; settings: Homo sapiens, MOLT-4, 48 h, 48 h exposure
Summary of the method: (§1)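 Viability read by MTT reduction (OD 540 nm after overnight SDS/HCl lysis) after 48 h compound treatment of cells in RPMI 1640/10% FBS. Triplicates at nine concentrations, 3.16-fold apart; four-parameter curve fitting yields IC50.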

H146 cells = experiment: H146 cell viability, MTT assay; format: cell-based; settings: Homo sapiens, NCI-H146, 48 h, 48 h exposure
Summary of the method: as §1

BCLXL [1] = molecular target: T1, BCLXL (Homo sapiens, UniProt Q07817, V10N/V9A); experiment: AlphaLISA assay (BIM peptide displacement); format: binding; settings: 20 pM protein, 1 nM peptide
Procedure: AlphaLISA assay measures an increase in alpha signal upon binding biotinylated GST(1-218)-(FACTOR_XA)-hs ? (2-209)(SEQ ID:02—GST UniProtKB® primary accession number P08515 and BCLXL UniProtKB® primary accession number Q07817-1) coupled to a Streptavidin labeled Alpha donor bead to N-terminally labeled peptide derived from BIM (Fluorescein-betaAla-Ahx-SEQID:05, wherein SEQ ID:05 is […]) coupled to an Anti-FTIC AlphaLISA acceptor bead.
GST(1-218)(FACTOR_XA)-hs ? (2-209) was biotinylated in 50 mM phosphate buffer using a 20 fold excess of EZ Link NHS-LC-Biotin (thermoFisher catalogue number 21336) overnight at 4° C.
The addition of a compound which binds competitively to the same site as the peptide will result in an decrease in the Alpha signal of the available donor bead-protein-peptide-acceptor bead complex due to displacement of the peptide.
An 11-point serial dilution of each compound was prepared in DMSO, the final buffer conditions were 10 mM 4-(2-hydroxyethyl)-1-piperazineethanesulfonic acid [HEPES], 150 mM NaCl, 0.05% Tween 20, pH 7.4 and 4% DMSO. The final protein concentration in the assay was 20 pM with the peptide present at 1 nM). Alpha beads were used at a final concentration of 5 ug/mL. The experiments were incubated for overnight at 23° C. after acceptor bead addition. Finally the donor bead is added and incubated for 2 hours at 23° C. before Alpha signal measured on a Biotek Synergy2 plate reader (Excitation 680 nm, emission 615 nm).

BCLXL [2] = molecular target: T1, BCLXL; experiment: Fluorescence polarisation assay (PUMA-based probe displacement); format: binding; further: 20 nM protein, 10 nM fluorescent probe
Bcl-xL protein = molecular target: T2, Bcl-xL protein (Homo sapiens, UniProt Q07817, N197C); experiment: Fluorescence quenching assay (PUMA peptide displacement); format: binding; settings: 1 nM protein, 400 nM peptide, 2 hours at 23° C.; KI determined from IC50
T2 construct: (2-197)[N197C]; His-His (two His8 stretches joined by a Gly/Ala/Ser/Thr linker)
Summary of the method: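 Compounds were tested as an 11-point series in pH 7.4 HEPES/NaCl/Tween buffer with 5% DMSO, 2 h at 23 °C. Cy5-tagged Bcl-xL(2-197, N197C) at 1 nM and quencher-tagged PUMA peptide at 400 nM were used. Competitive binders restore fluorescence (620/680 nm), and IC50 values were converted to KI.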

T1 sequence (Q07817 with tags, fused parts or gaps V9A/V10N): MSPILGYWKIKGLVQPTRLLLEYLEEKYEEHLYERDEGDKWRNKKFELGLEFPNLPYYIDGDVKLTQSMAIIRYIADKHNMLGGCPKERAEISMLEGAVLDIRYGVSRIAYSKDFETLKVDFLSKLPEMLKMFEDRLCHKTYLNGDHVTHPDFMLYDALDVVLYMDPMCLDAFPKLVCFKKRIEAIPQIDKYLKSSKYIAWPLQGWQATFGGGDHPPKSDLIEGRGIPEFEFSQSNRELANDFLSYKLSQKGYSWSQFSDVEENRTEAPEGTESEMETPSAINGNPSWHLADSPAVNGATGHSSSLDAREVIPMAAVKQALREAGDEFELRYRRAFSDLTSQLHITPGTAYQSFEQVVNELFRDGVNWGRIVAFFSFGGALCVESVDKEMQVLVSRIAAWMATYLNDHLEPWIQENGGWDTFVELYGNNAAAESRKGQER
T2 sequence (Q07817 2-197 N197C): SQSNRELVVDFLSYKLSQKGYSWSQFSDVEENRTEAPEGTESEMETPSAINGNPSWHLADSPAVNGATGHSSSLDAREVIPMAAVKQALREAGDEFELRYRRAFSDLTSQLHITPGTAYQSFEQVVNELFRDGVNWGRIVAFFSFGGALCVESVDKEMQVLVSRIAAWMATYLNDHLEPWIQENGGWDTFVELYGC

SMILES | IC50 (MOLT-4 cells) [nM] | IC50 (H146 cells) [nM] | IC50 (BCLXL [1]) [nM] | Ki (BCLXL [2]) [nM] | Ki (Bcl-xL protein) [nM]
Cc1cc(N(C)c2nc(C(=O)O)c(C3CCN(S(=O)(=O)c4ccccc4)CC3)s2)nnc1Nc1nc2ccccc2s1 [Example 92, 5-[1-(Benzenesulfonyl)piperidin-4-yl]-2-({6-[(1,3-benzothiazol-2-yl)amino]-5-methylpyridazin-3-yl}(methyl)amino)-1,3-thiazole-4-carboxylic acid] | > 15000 | > 15000 | 46 | 68 | –
COCC(O)CCN(c1cc(C)c(Nc2nc3ccccc3s2)nn1)c1nc(C(=O)O)cs1 (centres unmarked) [Example 93, 2-[[6-(1,3-Benzothiazol-2-ylamino)-5-methyl-pyridazin-3-yl]-(3-hydroxy-4-methoxy-butyl)amino]thiazole-4-carboxylic acid] | 9400 | > 15000 | 6.4 | 6.8 | –
Cc1cc(N(C)c2nc(C(=O)O)c(C3CCN(S(C)(=O)=O)CC3)s2)nnc1Nc1nc2ccccc2s1 [Example 94, 2-({6-[(1,3-Benzothiazol-2-yl)amino]-5-methylpyridazin-3-yl}(methyl)amino)-5-(1-methanesulfonylpiperidin-4-yl)-1,3-thiazole-4-carboxylic acid] | ≥ 10000 | 4070 | 51 | 67 | –
Cc1cc(N(C)c2nc(C(=O)O)c(C3CCN(S(=O)(=O)Cc4ccccc4)CC3)s2)nnc1Nc1nc2ccccc2s1 [Example 95, 2-({6-[(1,3-Benzothiazol-2-yl)amino]-5-methylpyridazin-3-yl}(methyl)amino)-5-(1-phenylmethanesulfonylpiperidin-4-yl)-1,3-thiazole-4-carboxylic acid] | 5010 | 9270 | 22 | 24 | –
COC(CO)CCN(c1cc(C)c(Nc2nc3ccccc3s2)nn1)c1nc(C(=O)O)cs1 (centres unmarked) [Example 98, 2-[[6-(1,3-Benzothiazol-2-ylamino)-5-methyl-pyridazin-3-yl]-(4-hydroxy-3-methoxy-butyl)amino]thiazole-4-carboxylic acid] | > 15000 | > 15000 | 1.8 | 2.3 | –
Cc1cc(N(C)c2nc(C(=O)O)c(CCCOc3ccc(C#CC[N+](C)(C)CCCS(=O)(=O)[O-])cc3F)s2)nnc1Nc1nc2ccccc2s1 [Example 101, 3-[3-[4-[3-[2-[[6-(1,3-Benzothiazol-2-ylamino)-5-methyl-pyridazin-3-yl]-methyl-amino]-4-carboxy-thiazol-5-yl]propoxy]-3-fluoro-phenyl]prop-2-ynyl-dimethyl-ammonio]propane-1-sulfonate] | 483 | 1190 | 0.0022 | < 1 | –
CNCC#Cc1ccc(OCCCc2sc(N(CCC(O)CO)c3cc(C)c(Nc4nc5ccccc5s4)nn3)nc2C(=O)O)c(F)c1 (centres unmarked) [Example 108, 2-[[6-(1,3-Benzothiazol-2-ylamino)-5-methyl-pyridazin-3-yl]-(3,4-dihydroxybutyl)amino]-5-[3-[2-fluoro-4-[3-(methylamino)prop-1-ynyl]phenoxy]propyl]thiazole-4-carboxylic acid] | 46.7 | 22.3 | 0.0066 | < 1 | –
CNCC#Cc1ccc(OCCCc2sc(N(CCCC(O)CO)c3cc(C)c(Nc4nc5ccccc5s4)nn3)nc2C(=O)O)c(F)c1 (centres unmarked) [Example 119, 2-[[6-(1,3-Benzothiazol-2-ylamino)-5-methyl-pyridazin-3-yl]-(4,5-dihydroxypentyl)amino]-5-[3-[2-fluoro-4-[3-(methylamino)prop-1-ynyl]phenoxy]propyl]thiazole-4-carboxylic acid] | 97.4 | 21.4 | 0.006 | < 1 | –
Cc1cc(N(CCC(O)CO)c2nc(C(=O)O)c(CCCOc3ccc(C#CCN(C)C)cc3F)s2)nnc1Nc1nc2ccccc2s1 (centres unmarked) [Example 123, 2-[[6-(1,3-Benzothiazol-2-ylamino)-5-methyl-pyridazin-3-yl]-(3,4-dihydroxybutyl)amino]-5-[3-[4-[3-(dimethylamino)prop-1-ynyl]-2-fluoro-phenoxy]propyl]thiazole-4-carboxylic acid] | 16.5 | 6.25 | 0.004 | < 1 | –
CNCC#Cc1ccc(OCCCc2sc(N(CCCO)c3cc(C)c(Nc4nc5ccccc5s4)nn3)nc2C(=O)O)c(F)c1 [Example 127, 2-[[6-(1,3-Benzothiazol-2-ylamino)-5-methyl-pyridazin-3-yl]-(3-hydroxypropyl)amino]-5-[3-[2-fluoro-4-[3-(methylamino)prop-1-ynyl]phenoxy]propyl]thiazole-4-carboxylic acid] | 11.3 | 9.04 | 0.0066 | < 1 | –
Cc1cc(N(CCCCO)c2nc(C(=O)O)c(CCCOc3ccc(C#CC[N+](C)(C)CCCS(=O)(=O)[O-])cc3F)s2)nnc1Nc1nc2ccccc2s1 [Example 130, 3-[3-[4-[3-[2-[[6-(1,3-Benzothiazol-2-ylamino)-5-methyl-pyridazin-3-yl]-(4-hydroxybutyl)amino]-4-carboxy-thiazol-5-yl]propoxy]-3-fluoro-phenyl]prop-2-ynyl-dimethyl-ammonio]propane-1-sulfonate] | 108 | 201 | 0.0054 | < 1 | –
Cc1cc(N(C)c2nc(C(=O)O)c(CC3(COc4ccc(C#CCN(C)C)cc4F)CC3)s2)nnc1Nc1nc2ccccc2s1 [Example 140, 2-({6-[(1,3-Benzothiazol-2-yl)amino]-5-methylpyridazin-3-yl}(methyl)amino)-5-{[1-({4-[3-(dimethylamino)prop-1-yn-1-yl]-2-fluorophenoxy}methyl)cyclopropyl]methyl}-1,3-thiazole-4-carboxylic acid] | 23.4 | 142 | 0.024 | < 1 | –
Cc1cc(N(CCCCO)c2nc(C(=O)O)c(CCCOc3ccc(C#CCN(CCCS(=O)(=O)O)CCCS(=O)(=O)O)cc3F)s2)nnc1Nc1nc2ccccc2s1 [Example 147, 2-({6-[(1,3-Benzothiazol-2-yl)amino]-5-methylpyridazin-3-yl}(4-hydroxybutyl)amino)-5-[3-(4-{3-[bis(3-sulfopropyl)amino]prop-1-yn-1-yl}-2-fluorophenoxy)propyl]-1,3-thiazole-4-carboxylic acid] | – | – | 0.0071 | – | 0.0097
Cc1cc(N(CCCCO)c2nc(C(=O)O)c(CCCOc3ccc(C#CCNCCCS(=O)(=O)O)cc3F)s2)nnc1Nc1nc2ccccc2s1 [Example 148, 2-[[6-(1,3-Benzothiazol-2-ylamino)-5-methyl-pyridazin-3-yl]-(4-hydroxybutyl)amino]-5-[3-[2-fluoro-4-[3-(3-sulfopropylamino)prop-1-ynyl]phenoxy]propyl]thiazole-4-carboxylic acid] | – | – | 0.0057 | – | 0.0012
Cc1cc(N(C)c2nc(C(=O)O)c(C[C@H](C)COc3ccc(C#CCN(C)C)cc3F)s2)nnc1Nc1nc2ccccc2s1 [Example 161, 2-({6-[(1,3-Benzothiazol-2-yl)amino]-5-methylpyridazin-3-yl}(methyl)amino)-5-[(2S)-3-{4-[3-(dimethylamino)prop-1-yn-1-yl]-2-fluorophenoxy}-2-methylpropyl]-1,3-thiazole-4-carboxylic acid] | 3.23 | 30.2 | 0.032 | < 1 | –
